Each molecule was assayed against T1, human recombinant ROCK II (Homo sapiens, UniProt O75116) (assay: Determination of Rho kinase inhibition (ROCK II, Caliper peptide phosphorylation assay)). Conditions: respective form (salt or free base) as obtained in the examples, 60 min at 32° C.
T1 construct: recombinant human ROCK-II residues 11-552; His6 (N); purchased Millipore GmbH, Schwalbach, Germany
T1 sequence (O75116 11-552): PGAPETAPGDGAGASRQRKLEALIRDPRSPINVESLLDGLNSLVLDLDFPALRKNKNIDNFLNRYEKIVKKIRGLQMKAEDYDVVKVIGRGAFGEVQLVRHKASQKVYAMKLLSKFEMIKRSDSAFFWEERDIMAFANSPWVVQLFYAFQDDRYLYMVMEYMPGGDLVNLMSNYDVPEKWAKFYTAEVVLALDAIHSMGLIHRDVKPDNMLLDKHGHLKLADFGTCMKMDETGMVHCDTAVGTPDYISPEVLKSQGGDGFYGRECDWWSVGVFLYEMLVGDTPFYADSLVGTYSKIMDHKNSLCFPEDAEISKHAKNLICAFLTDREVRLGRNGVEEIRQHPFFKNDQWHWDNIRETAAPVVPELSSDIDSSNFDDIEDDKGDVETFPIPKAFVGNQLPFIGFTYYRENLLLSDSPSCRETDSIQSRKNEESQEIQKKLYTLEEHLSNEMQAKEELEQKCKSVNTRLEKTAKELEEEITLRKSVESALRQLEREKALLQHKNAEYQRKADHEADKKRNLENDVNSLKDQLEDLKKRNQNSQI
Format: biochemical
Procedure: To measure Rho-kinase inhibition, IC50 values were determined according to the following protocol:
Active human recombinant ROCK II (N-terminal His6-tagged recombinant human ROCK-II residues 11-552) was purchased from Millipore GmbH, Schwalbach, Germany. The peptide substrate, Fluorescein-[…]-COOH, was obtained from JPT Peptide Technologies, Berlin, Germany. Adenosine-5′-triphosphate (ATP), bovine serum albumine (BSA), dimethylsulphoxide (DMSO), 4-(2-hydroxyethyl)piperazine-1-ethanesulfonic acid (Hepes), Brij-35, dithiothreitol (DTT) and Pluronic F-68 were purchased from Sigma-Aldrich, Munich, Germany. Tris(hydroxymethyl)-aminomethane (Tris), magnesium chloride, NaOH, 1M HCl and EDTA were obtained from Merck Biosciences, Darmstadt, Germany. “Complete” protease inhibitor was from Roche Diagnostics, Mannheim, Germany. Test compounds were diluted to the appropriate concentrations in buffer 1 (25 mM Tris-HCl, pH 7.4, 5 mM MgCl2, 2 mM DTT, 0.02% (w/v) BSA, 0.01% Pluronic F-68 and 3% DMSO). The ROCK II enzyme was diluted to a concentration of 100 ng/mL in buffer 2 (25 mM Tris-HCl, pH 7.4, 5 mM MgCl2, 2 mM DTT and 0.02% (w/v) BSA). The peptide substrate and ATP were diluted to concentrations of 3 μM and 120 μM, respectively, in the buffer 2. Two μl of the compound solution were mixed with 2 μl of the diluted enzyme in a 384-well small volume microtiter plate (Greiner, Bio-One, Frickenhausen, Germany), and the kinase reaction was initiated by addition of 2 μl of the solution containing peptide substrate and ATP. After 60 min incubation at 32° C., the reaction was stopped by addition of 20 μl of a solution containing 100 mM Hepes-NaOH, pH 7.4, 0.015% (v/v) Brij-35, 45 mM EDTA and 0.227% chip coating reagent 1 (Caliper Lifescience Inc, Hopkinton, Mass.). Phosphorylation of the substrate peptide was then detected on a Caliper 3000 instrument essentially as described by Pommereau et al (J. Biomol. Screening 2004, 9(5), 409-416). Separation conditions were as follows: Pressure −1.3 psi, upstream voltage −1562 V, downstream voltage −500 V, sample sip time 200 ms. Positive controls (buffer 1 instead of compound) and negative controls (buffer 1 instead of compound and buffer 2 instead of ROCK II) were run in parallel on each plate.
The following products/compounds were tested in said assay by using the respective form (salt or free base) obtained as in the examples described above and the following activities were measured
In the case of `CCOC1(C(N)CC)CCC(Oc2cc3cc[nH]c(=O)c3cc2Cl)CC1` (mixture of isomers) [Example 60, 6-[4-(1-Amino-propyl)-4-ethoxy-cyclohexyloxy]-7-chloro-2H-isoquinolin-1-one], the IC50 is reported as 0.01 to 0.1 µM.
`CCC(N)[C@]1(C)CC[C@H](Oc2cc3cc[nH]c(=O)c3cc2Cl)CC1` (mixture of isomers) [Example 26, cis-6-[4-(1-Amino-propyl)-4-methyl-cyclohexyloxy]-7-chloro-2H-isoquinolin-1-one] showed an IC50 of at most 0.01 µM.
In the case of `CCC(N)C1(COC(C)C)CCC(Oc2cc3cc[nH]c(=O)c3cc2Cl)CC1` (single isomer, unassigned) [Example 20, 6-[4-(1-Amino-propyl)-4-isopropoxymethyl-cyclohexyloxy]-7-chloro-2H-isoquinolin-1-one], the IC50 is reported as 0.1 to 1 µM.
Molecule `CCC(N)C1(C2CCCC2)CCC(Oc2cc3cc[nH]c(=O)c3cc2Cl)CC1` (single isomer, unassigned) [Example 24, 6-[4-(1-Amino-propyl)-4-cyclopentyl-cyclohexyloxy]-7-chloro-2H-isoquinolin-1-one] has an IC50 of 0.01 to 0.1 µM.
In the case of `CCC(N)C1(CC(C)C)CCC(Oc2cc3cc[nH]c(=O)c3cc2Cl)CC1` (single isomer, unassigned) [Example 29, 6-[4-(1-Amino-propyl)-4-isobutyl-cyclohexyloxy]-7-chloro-2H-isoquinoIin-1-one], the IC50 is reported as 0.01 to 0.1 µM.
Work on `NC(C(F)(F)F)C1(CC2CC2)CCC(Oc2cc3cc[nH]c(=O)c3cc2Cl)CC1` (single isomer, unassigned) [Example 40, 6-[4-(1-Amino-2,2,2-trifluoro-ethyl)-4-cyclo-propylmethyl-cyclohexyloxy]-7-chloro-2H-isoquinolin-1-one] yielded an IC50 of 0.1 to 1 µM.
Molecule `CC(C)C1(C(N)c2nccs2)CCC(Oc2cc3cc[nH]c(=O)c3cc2Cl)CC1` (single isomer, unassigned) [Example 46, 6-[4-(Amino-thiazol-2-yl-methyl)-4-isopropyl-cyclohexyl-oxy]-7-chloro-2H-isoquinolin-1-one] has an IC50 of 0.1 to 1 µM.
For `CCC1(C(N)CCOC)CCC(Oc2cc3cc[nH]c(=O)c3cc2Cl)CC1` (single isomer, unassigned) [Example 98, 6-[4-(1-amino-3-methoxy-propyl)-4-ethyl-cyclohexyloxy]-7-chloro-2H-isoquinolin-1-one], the IC50 was 0.01 to 0.1 µM.
Work on `CCC(N)C1(C(F)(F)F)CCC(Oc2cc3cc[nH]c(=O)c3cc2Cl)CC1` (single isomer, unassigned) [Example 104, 6-[4-(1-Amino-propyl)-4-trifluoromethyl-cyclohexyloxy]-7-chloro-2H-isoquinolin-1-one] yielded an IC50 of 0.1 to 1 µM.
Work on `CCC(N)C1(C2CCOCC2)CCC(Oc2cc3cc[nH]c(=O)c3cc2Cl)CC1` (single isomer, unassigned) [Example 105] yielded an IC50 of 0.01 to 0.1 µM.
`CCCC[C@]1(C(N)CC)CC[C@@H](Oc2cc3c(Cc4ccccc4)c[nH]c(=O)c3cc2Cl)CC1` (stereo partly drawn) [Example 39, cis-6-[4-(1-Amino-propyl)-4-butyl-cyclohexyloxy]-4-benzyl-7-chloro-2H-isoquinolin-1-one] gave an IC50 of 0.1 to 1 µM.
For `CCC(N)[C@]1(CC)CC[C@H](Oc2c(F)cc3c(=O)[nH]ccc3c2C)CC1` (stereo partly drawn) [Example 51, cis-6-[4-(1-Amino-propyl)-4-ethyl-cyclohexyloxy]-7-fluoro-5-methyl-2H-isoquinolin-1-one], the IC50 was 0.1 to 1 µM.
`CCC(N)[C@]1(CC)CC[C@H](Oc2c(C)cc3cnccc3c2C)CC1` (stereo partly drawn) [Example 53, cis-1-[4-(5,7-Dimethyl-isoquinolin-6-yloxy)-1-ethyl-cyclohexyl]-propylamine] was tested, and the IC50 was 0.1 to 1 µM.
With `CCC(N)[C@]1(CC)CC[C@H](Oc2cc3ccncc3cc2C)CC1` (stereo partly drawn) [Example 56, cis-1-[1-Ethyl-4-(7-methyl-isoquinolin-6-yloxy)-cyclohexyl]-propylamine] the IC50 was 0.1 to 1 µM.
`CCC(N)[C@]1(CC)CC[C@H](Oc2c(F)cc3cnccc3c2C)CC1` (stereo partly drawn) [Example 57, cis-1-[1-Ethyl-4-(7-fluoro-5-methyl-isoquinolin-6-yloxy)-cyclohexyl]-propylamine] showed an IC50 of 0.1 to 1 µM.
Molecule `NC(c1ccccc1)[C@]1(CC2CC2)CC[C@H](Oc2cc3cc[nH]c(=O)c3cc2Cl)CC1` (stereo partly drawn) [Example 63, cis-6-[4-(Amino-phenyl-methyl)-4-cyclopropylmethyl-cyclohexyloxy]-7-chloro-2H-isoquinolin-1-one] has an IC50 of 0.1 to 1 µM.
In the case of `CCC(N)[C@]1(CCCC(F)(F)F)CC[C@H](Oc2cc3cc[nH]c(=O)c3cc2Cl)CC1` (stereo partly drawn) [Example 66, cis-6-[4-(1-Amino-propyl)-4-(4,4,4-trifluoro-butyl)-cyclohexyloxy]-7-chloro-2H-isoquinolin-1-one], the IC50 is reported as at most 0.01 µM.
For `CCC(N)[C@]1(CC2CCOCC2)CC[C@H](Oc2cc3cc[nH]c(=O)c3cc2Cl)CC1` (stereo partly drawn) [Example 67, cis-6-[4-(1-Amino-propyl)-4-(tetrahydro-pyran-4-ylmethyl)-cyclohexyloxy]-7-chloro-2H-isoquinolin-1-one], the IC50 was 0.01 to 0.1 µM.
`CCOC[C@]1(C(N)CC)CC[C@@H](Oc2cc3cc[nH]c(=O)c3cc2Cl)CC1` (stereo partly drawn) [Example 71, cis-6-[4-(1-Amino-propyl)-4-ethoxymethyl-cyclohexyloxy]-7-chloro-2H-isoquinolin-1-one] gave an IC50 of at most 0.01 µM.
Work on `CC[C@]1(C(C)N)CC[C@@H](Oc2c(F)cc3c(=O)[nH]ccc3c2C)CC1` (stereo partly drawn) [Example 79, cis-6-[4-(1-Amino-ethyl)-4-ethyl-cyclohexyloxy]-7-fluoro-5-methyl-2H-isoquinolin-1-one] yielded an IC50 of 0.1 to 1 µM.
In the case of `CC[C@]1(C(C)N)CC[C@@H](Oc2c(F)cc3cnccc3c2C)CC1` (stereo partly drawn) [Example 80, cis-1-[1-Ethyl-4-(7-fluoro-5-methyl-isoquinolin-6-yloxy)-cyclohexyl]-ethylamine], the IC50 is reported as 0.1 to 1 µM.
With `CC[C@]1(C(C)N)CC[C@@H](Oc2cc3c(Cc4ccccc4)c[nH]c(=O)c3cc2Cl)CC1` (stereo partly drawn) [Example 81, cis-6-[4-(1-Amino-ethyl)-4-ethyl-cyclohexyloxy]-4-benzyl-7-chloro-2H-isoquinolin-1-one] the IC50 was 0.1 to 1 µM.
In the case of `CC[C@]1(C(C)N)CC[C@@H](Oc2cc3ccncc3cc2Br)CC1` (stereo partly drawn) [Example 82, cis-1-[4-(7-Bromo-isoquinolin-6-yloxy)-1-ethyl-cyclohexyl]-ethylamine], the IC50 is reported as 0.1 to 1 µM.
For `CC[C@]1(C(C)N)CC[C@@H](Oc2ccc3cnccc3c2Cl)CC1` (stereo partly drawn) [Example 84, cis-1-[4-(5-Chloro-isoquinolin-6-yloxy)-1-ethyl-cyclohexyl]-ethylamine], the IC50 was 0.1 to 1 µM.
`CCC(NCC1CC1)[C@]1(CC)CC[C@H](Oc2cc3cc[nH]c(=O)c3cc2Cl)CC1` (stereo partly drawn) [Example 85, cis-7-Chloro-6-{4-[1-(cyclopropylmethyl-amino)-propyl]-4-ethyl-cyclohexyloxy}-2H-isoquinolin-1-one] was tested, and the IC50 was 0.1 to 1 µM.
In the case of `CCC(NCc1ccccc1)C1(CC)CCC(Oc2cc3cc[nH]c(=O)c3cc2Cl)CC1` (stereo not drawn) [Example 86, cis-6-[4-(1-Benzylamino-propyl)-4-ethyl-cyclohexyloxy]-7-chloro-2H-isoquinolin-1-one], the pIC50 is reported as “+++++ (6.0 ≦ pIC50 < 7.0)”.
For `CCC(NCC(C)C)[C@]1(CC)CC[C@H](Oc2cc3cc[nH]c(=O)c3cc2Cl)CC1` (stereo partly drawn) [Example 87, cis-7-Chloro-6-[4-ethyl-4-(1-isobutylamino-propyl)-cyclohexyloxy]-2H-isoquinolin-1-one], the IC50 was 0.1 to 1 µM.
`CCCCNC(CC)[C@]1(CC)CC[C@H](Oc2cc3cc[nH]c(=O)c3cc2Cl)CC1` (stereo partly drawn) [Example 88, cis-6-[4-(1-Butylamino-propyl)-4-ethyl-cyclohexyloxy]-7-chloro-2H-isoquinolin-1-one] was tested, and the IC50 was 0.1 to 1 µM.
`CC(C)C(N)C1(C(C)C)CCC(Oc2cc3cc[nH]c(=O)c3cc2Cl)CC1` (stereo not drawn) [Example 89, 6-[4-(1-Amino-2-methyl-propyl)-4-isopropyl-cyclohexyloxy]-7-chloro-2H-isoquinolin-1-one] was tested, and the IC50 was 0.1 to 1 µM.
Work on `CCC[C@]1(C(C)N)CC[C@@H](Oc2cc3ccnc(N)c3cc2Cl)CC1` (stereo partly drawn) [Example 100, cis-6-[4-(1-Amino-ethyl)-4-propyl-cyclohexyloxy]-7-chloro-isoquinolin-1-ylamine] yielded an IC50 of 0.1 to 1 µM.

From patent US8399482B2, “6-substituted isoquinolines and isoquinolinones” (Sanofi, priority 2008, dated 2013)
